In publication PMC4607724, “Discovery and optimisation studies of antimalarial phenotypic hits” (European Journal of Medicinal Chemistry, 2015):
Values after ≈ are worked out from the molar mass of the structure shown. Like-named read-outs stand apart in the source and are kept apart here.

What was measured:
[1] = Aqueous solubility estimation by nephelometry; format: physicochemical; conditions: 1% DMSO
Experimental: (§1) IV. Physicochemical Evaluation […]
Solubility Estimation: Aqueous solubility was estimated by nephelometry. A concentrated
stock solution prepared in DMSO was spiked into either pH 6.5 phosphate buffer or 0.01 N HCl
(approx. pH 2.0) with the final DMSO concentration being 1%. Samples were then analyzed by
Nephelometry to determine the solubility range as described previously.[9] […]

[2] = Chromatographic LogD estimation (gLogD); format: physicochemical; conditions: chromatographic gLogD technique, pH 7.4
Experimental: as §1
Chromatographic Log D Estimation: The partition coefficient (gLogDpH 7.4) of 20 was estimated by correlation of its chromatographic retention properties with the retention characteristics of a series of standard compounds with known partition coefficient values. Data were collected using a Waters 2785 HPLC with a Waters 2487 dual channel UV detector with a Phenomenex Synergi Hydro-RP 4 µm (30 mm x 2 mm) column. The mobile phase was aqueous buffer (50 mM ammonium acetate, pH 7.4) and acetonitrile with an acetonitrile gradient of 0-100% over 10 min. Compound elution was monitored at 220 and 254 nm. […]

P. falciparum K1 = assay: In vitro activity against erythrocytic stages of P. falciparum, 3H-hypoxanthine incorporation assay; format: cell-based; conditions: Plasmodium falciparum; K1 strain (chloroquine and pyrimethamine resistant); means of two independent assays; read-out: P. falc. EC50
Experimental: (§2) VI. Design and Results of the in vitro & in vivo Studies.
A. Drug inhibition of in vitro cultured P. falciparum parasite:[2] All in vitro assays were carried out twice independently in duplicate.In vitro activity against theerythrocytic stages of P. falciparum was determined by using a 3H-hypoxanthine incorporation assay, using the chloroquine and pyrimethamine resistant K1 strain and the standard drugs chloroquine (Sigma C6628) and artemisinin (Arteannuin, Qinghaosu; Sigma 36,159- 3). Compounds were dissolved in DMSO at 10 mg/mL and added to parasite cultures incubated in RPMI 1640 medium without hypoxanthine, supplemented with HEPES (5.94 g/L), NaHCO3 (2.1 g/L), neomycin (100U/mL), AlbumaxR (5 g/L), and washed human red cells A+ at 2.5% haematocrit (0.3% parasitaemia). Serial doubling dilutions of each drug were prepared in 96-well microtiter plates and incubated in a humidified atmosphere at 37 °C; 4% CO 2, 3% O2, 93% N2. After 48 h, 50 µLof 3H-hypoxanthine (= 0.5 µCi) was added to each well of the plate. The plates were incubated for an additional 24 h under the same conditions. The plates were then harvested with a Betaplate cell harvester (Wallac, Zurich, Switzerland), and the red blood cells were transferred onto a glass fiber filter and then washed with distilled water. The dried filters were inserted into a plastic foil with 10 mL of scintillation fluid and were counted in a Betaplate™ liquid scintillation counter (Wallac, Zurich, Switzerland); IC50values were calculated from sigmoidal inhibition curves using Microsoft Excel. […]

[3] = In vitro cytotoxicity assay in L-6 cells (Alamar Blue); conditions: rat, L-6 cells (rat skeletal myoblasts)
Experimental: as §2
A. Drug inhibition of in vitro cultured P. falciparum parasite:[2] […]
B. In vitro cytotoxicity assay: [2] Assays were performed in 96-well microtiter plates, each well containing 100 µl of RPMI 1640 medium supplemented with 1% L-glutamine (200mM) and 10% fetal bovine serum, and 4 x 10^4 L-6 cells (a primary cell line derived from rat skeletal myoblasts).
Serial drug dilutions of seven 3-fold dilution steps covering a range from 90 to 0.123 µg/mL were prepared. After 72 h of incubation the plates were inspected under an inverted microscope to assure growth of the controls and sterile conditions. 10µL of Alamar Blue was then added to each well and the plates incubated for another 2 h. Then the plates were read with a Spectramax Gemini XS microplatefluorometer (Molecular Devices Cooperation, Sunnyvale, CA, USA) using an excitation wave length of 536 nm and an emission wave length of 588 nm. Data were analysed using the microplate reader software Softmax Pro (Molecular Devices Cooperation, Sunnyvale, CA, USA).

[4] = Metabolic stability, NADPH-dependent degradation in mouse liver microsomes; format: in vitro ADME
Experimental: (§3) Compound 20 (1 µM) was incubated at 37 ° C with human or mouse liver microsomes (BD Gentest, Discovery Labware Inc., Woburn, MA). The reaction was initiated by the addition of an NADPH-regenerating system containing 1 mg/mL NADP, 1 mg/mL glucose-6-phosphate, 1 U/mL glucose-6-phosphate dehydrogenase, and 0.67 mg/mL MgCl2and quenched at various time points over the incubation period (60 min) by the addition of ice cold acetonitrile. Samples were also incubated in the absence of co-factor to monitor for non-specific degradation. The relative loss of parent compound and formation of metabolic products were monitored by LC/MS using a Waters/Micromass LCT instrument.
(§4) Compound concentration versus time data were fitted to an exponential decay function to determine the first-order rate constant for substrate depletion which was used to obtain the in vitro intrinsic clearance (in vitro CLint), and then scaled to predict the human intrinsic clearance (scaling parameters included liver mass of 25.7 g liver/kg body weight for human and 87.5 g liver/kg body weight for mouse and microsomal protein content of 45 mg microsomal protein/g liver mass for […]
(§5) both species)[10]. […]

[5] = Metabolic stability, NADPH-dependent degradation in human liver microsomes; format: in vitro ADME
Experimental: as §3, §4, §5

## Cc1cc(/C=C2\S/C(=N\c3ccccc3)N(C3CCCCC3)C2=O)c(C)n1-c1ccc(F)cc1 [Compound 20, (2Z, 5Z)-3-Cyclohexyl-5-((1-(4-fluorophenyl)-2,5-dimethyl-1H-pyrrol-3-yl)methylene)-2-(phenylimino)thiazolidin-4-one]
[1]; pH 2.0 (0.01 N HCl)
  Solubility pH 2.0: poor aqueous solubility
[1]; pH 2.0 (0.01 N HCl), read-out: Solubility pH 2.0
  solubility: < 0.8 µg/mL
[1]; pH 6.5 phosphate buffer
  Solubility pH 6.5: poor aqueous solubility
[1]; pH 6.5 phosphate buffer, read-out: Solubility pH 6.5
  solubility: 0.8 to 1.6 µg/mL (≈ 1.69 to 3.38 µM)
[2]
  chromatographic logD: 7.1
P. falciparum K1
  EC50: 2000 nM
[3]
  EC50 at 72 h: > 190000 nM
[4]; incubation with mouse liver microsomes
  NADPH-dependent degradation: rapid NADPH-dependent degradation
[4]; liver microsomes, mouse, scaled from in vitro CLint, read-out: Microsome predicted in vivo CLint
  CLint scaled at 1 µM: 216 mL/min/kg
[4]; mouse liver microsomes, 1 µM, 37 °C, NADPH
  In vitro CLint: 0.055 ml/min/mg Protein
[4]; mouse liver microsomes, LC/MS
  Metabolites detected: no obvious metabolites were detected and None
[4]; mouse, well-stirred model
  Microsome predicted hepatic extraction ratio EH: 0.71
[5]; human liver microsomes, LC/MS
  Metabolites detected: no obvious metabolites were detected and None
[5]; human, well-stirred model
  Microsome predicted hepatic extraction ratio EH: 0.67
[5]; incubation with human liver microsomes
  NADPH-dependent degradation: rapid NADPH-dependent degradation
[5]; liver microsomes, human, scaled from in vitro CLint, read-out: Microsome predicted in vivo CLint
  CLint scaled at 1 µM: 42 mL/min/kg
